# Reference: patent US11261193B2, “Morphic forms of G1T38 and methods of manufacture thereof” (G1 Therapeutics, Inc., priority 2017, dated 2022)
# Entries after “also recorded” stand apart in the source; their conditions may differ. Like-named read-outs stand apart in the source and are kept apart here.
# What was measured:
# [1] = Stability study under thermal stress (oven at 60° C. for 7 days); format: physicochemical; settings: for XRPD pattern / stability after thermal stress: 60° C. for 7 days
# Experimental: Forms A, B, and D were stored in an oven maintained at 60° C. for 7 days.
# [2] = Solubility estimate by aliquot addition with visual observation; format: physicochemical; settings: thermodynamic from solid
# Experimental: Solubility estimates of impure Form B were attempted in various predominantly HCl acidic aqueous acetone solvent mixtures using an aliquot addition method that involved visual observation. Aliquots of various solvents or diluent/organic solvent mixtures were added to measured amounts of impure Form B with agitation (typically sonication) at ambient temperature until complete dissolution was achieved, as judged by visual observation. Solubilities were calculated based on the total solvent used to give a solution; actual solubilities may be greater because of the volume of solvent portions utilized or a slow rate of dissolution. […] If dissolution occurred at the first aliquot, the value was reported as “>”. Due to the haziness of the obtained samples, effective solubility estimates were difficult to discern.
# [3] = Dynamic vapor sorption (moisture sorption) experiment; format: physicochemical; settings: for XRPD (post DVS): form by XRPD after moisture sorption, sample dried at 60° C. and 0% RH; for % wt change at 60% RH: moisture adsorbed at 60% RH; for % wt change at 90% RH: moisture adsorbed at 90% RH
# RB phosphorylation = settings: in vitro and in vivo; cited from earlier work
# [4] = test system: CDK4/6-dependent tumorigenic cell lines including breast, melanoma, leukemia, and lymphoma cells; settings: variety of CDK4/6-dependent tumorigenic cell lines; cited from earlier work
# [5] = Phase 1a toxicity trial in 75 women; format: in vivo, human
# [6] = Twelve-month stability study at 25° C./60% RH; format: physicochemical; settings: for Appearance / HPLC Purity / Moisture (%) / XRPD: 25° C./60% RH
# Experimental: (§1) Form B was stored at 25° C./60% RH for twelve months and at 40° C./75% RH for six months.
# [7] = Six-month stability study at 40° C./75% RH; format: physicochemical
# Experimental: as §1
# [8] = TG-IR experiment monitoring potential release of hydrogen chloride; format: physicochemical; settings: heated at 20° C./minute to approximately 140° C.; listed as pure Form B
# Experimental: Thermogravimetric infrared (TG-IR) analysis was performed on a TA Instruments Q5000 IR thermogravimetric (TG) analyzer interfaced to a Magna-IR 560® Fourier transform infrared (FT-IR) spectrophotometer (Thermo Nicolet) equipped with an Ever-Glo mid/far IR source, a potassium bromide (KBr) beamsplitter, and a mercury cadmium telluride (MCT-A) detector. The FT-IR wavelength verification was performed using polystyrene, and the TG calibration standards were nickel and Alumel™. The sample was placed in a platinum sample pan and the pan was inserted into the TG furnace. The TG instrument was started first, immediately followed by the FT-IR instrument. The TG instrument was operated under a flow of helium at 90 and 10 cc/minute for the purge and balance, respectively. The furnace was heated under helium at a rate of 20° C./minute to a final temperature of approximately 140° C. IR spectra were collected approximately every 32 seconds for approximately 7.5 minutes. Each IR spectrum represents 32 co-added scans collected at a spectral resolution of 4 cm-1. Volatiles were identified from a search of the High Resolution Nicolet Vapor Phase spectral library. […]
structure (smiles),measurement,setting,value
CC(C)N1CCN(c2ccc(Nc3ncc4cc5n(c4n3)C3(CCCCC3)CNC5=O)nc2)CC1 [Form C],XRPD pattern / stability after thermal stress,[1],remained unchanged
CC(C)N1CCN(c2ccc(Nc3ncc4cc5n(c4n3)C3(CCCCC3)CNC5=O)nc2)CC1 [Impure Form B],solubility,"[2]; aqueous buffer, 2.0M HCl, ambient, read-out: Solubility",4000 µg/mL
same,solubility,"[2]; aqueous buffer, 5.0M HCl, ambient, read-out: Solubility",3000 µg/mL
same,solubility,"[2]; aqueous buffer, 5.0M HCl:water 1:2, ambient, read-out: Solubility",7000 µg/mL
same,solubility,"[2]; aqueous with cosolvent or surfactant or cyclodextrin, 1M HCl:acetone 50:50, ambient, read-out: Solubility",4000 µg/mL
same,solubility,"[2]; aqueous with cosolvent or surfactant or cyclodextrin, 1M HCl:acetone 60:40, ambient, read-out: Solubility",4000 µg/mL
same,solubility,"[2]; aqueous with cosolvent or surfactant or cyclodextrin, 1M HCl:acetone 67:33, ambient, read-out: Solubility",6000 µg/mL
same,solubility,"[2]; aqueous with cosolvent or surfactant or cyclodextrin, 1.0M HCl:acetone 75:25, ambient, read-out: Solubility",7000 µg/mL
same,solubility,"[2]; aqueous with cosolvent or surfactant or cyclodextrin, predominantly HCl acidic aqueous acetone solvent mixtures, ambient temperature, read-out: solubility in the tested solvent mixtures",3000 to 7000 µg/mL
same,solubility,"[2]; organic solvent or mixture, 0.1M HCl:acetone 20:80, ambient, read-out: Solubility",< 1000 µg/mL
same,solubility,"[2]; organic solvent or mixture, 0.5M HCl:acetone 10:90, ambient, read-out: Solubility",< 1000 µg/mL
same,solubility,"[2]; organic solvent or mixture, 0.5M HCl:acetone 20:80, ambient, read-out: Solubility",< 1000 µg/mL
same,solubility,"[2]; organic solvent or mixture, 1M HCl:acetone 5:95, ambient, read-out: Solubility",< 1000 µg/mL
same,solubility,"[2]; organic solvent or mixture, 1M HCl:acetone 10:90, ambient, read-out: Solubility",< 1000 µg/mL
same,solubility,"[2]; organic solvent or mixture, 1M HCl:acetone 20:80, ambient, read-out: Solubility",< 1000 µg/mL
same,solubility,"[2]; organic solvent or mixture, 1M HCl:acetone 33:67, ambient, read-out: Solubility",2000 µg/mL
same,solubility,"[2]; organic solvent or mixture, Water:acetone 1:2, ambient, read-out: Solubility",3000 µg/mL
same,solubility,"[2]; Water, ambient, read-out: Solubility",< 7000 µg/mL
same,solubility,"[2]; water:acetone 3:1, aqueous with cosolvent or surfactant or cyclodextrin, Water:cetone 3:1, ambient, read-out: Solubility",< 3000 µg/mL
CC(C)N1CCN(c2ccc(Nc3ncc4cc5n(c4n3)C3(CCCCC3)CNC5=O)nc2)CC1 [Form D],stability in the moisture sorption experiment,[3],unstable; also recorded: not stable
same,XRPD (post DVS),[3],Form K
same,% wt change at 60% RH,[3],4.4 wt %
same,XRPD pattern / stability after thermal stress,[1],No change
CC(C)N1CCN(c2ccc(Nc3ncc4cc5n(c4n3)C3(CCCCC3)CNC5=O)nc2)CC1 [Form A],stability in the moisture sorption experiment,[3],unstable; also recorded: not stable
same,XRPD (post DVS),[3],Form K
same,% wt change at 60% RH,[3],14.9 wt %
same,% wt change at 90% RH,[3],15.8 wt %
same,XRPD pattern / stability after thermal stress,[1],A new pattern; also recorded: converted to a new Form
same,XRPD after equilibrium at room temperature,[1]; three further days at room temperature after 60° C. for 7 days,converted back to Form A; also recorded: changed back to Form A
"CC(C)N1CCN(c2ccc(Nc3ncc4cc5n(c4n3)C3(CCCCC3)CNC5=O)nc2)CC1 [Form G1T38, 2′-((5-(4-isopropylpiperazin-1-yl)pyridin-2-yl)amino)-7′,8′-dihydro-6′H-spiro[cyclohexane-1,9′-pyrazino[1′,2′:1,5]pyrrolo[2,3-d]pyrimidin]-6′-one]",inhibition of RB phosphorylation,RB phosphorylation,inhibits RB phosphorylation
same,inhibition of cell proliferation,[4],induces inhibition of cell proliferation
same,tolerability,[5],well tolerated with no significant adverse events
CC(C)N1CCN(c2ccc(Nc3ncc4cc5n(c4n3)C3(CCCCC3)CNC5=O)nc2)CC1 [Form B],time stable in long-term stability study,[6]; 25° C. and 60% relative humidity,at least 1 year
same,Appearance,[6]; 0 M,Yellow
same,HPLC Purity,[6]; 0 M,99.5%
same,Moisture (%),[6]; 0 M,4.9%
same,XRPD,[6]; 0 M,Form B
same,Appearance,[6]; 3 M,Yellow solid
same,HPLC Purity,[6]; 3 M,99.5%
same,Moisture (%),[6]; 3 M,4.07%
same,Appearance,[6]; 6 M,Yellow
same,HPLC Purity,[6]; 6 M,99.5%
same,Moisture (%),[6]; 6 M,7.53%
same,Appearance,[6]; 9 M,Yellow solid
same,HPLC Purity,[6]; 9 M,99.6%
same,Moisture (%),[6]; 9 M,7.29%
same,Appearance,[6]; 12 M,Yellow
same,HPLC Purity,[6]; 12 M,99.5%
same,Moisture (%),[6]; 12 M,7.48%
same,XRPD,[6]; 12 M,conformed to the reference spectrum; also recorded: Form B
same,Appearance,[7]; 0 M,Yellow solid
same,HPLC Purity,[7]; 0 M,99.5%
same,Moisture (%),[7]; 0 M,4.9%
same,XRPD,[7]; 0 M,Form B
same,Appearance,[7]; 1 M,Yellow solid
same,HPLC Purity,[7]; 1 M,99.5%
same,Moisture (%),[7]; 1 M,2.75%
same,Appearance,[7]; 3 M,Yellow solid
same,HPLC Purity,[7]; 3 M,99.5%
same,Moisture (%),[7]; 3 M,7.47%
same,XRPD,[7]; 3 M,Form B
same,Appearance,[7]; 6 M,Yellow solid
same,HPLC Purity,[7]; 6 M,99.5%
same,Moisture (%),[7]; 6 M,7.53%
same,XRPD,[7]; 6 M,conformed to the reference spectrum; also recorded: Form B
same,stability in the moisture sorption experiment,[3],stable
same,XRPD (post DVS),[3],remained in Form B; also recorded: remained unchanged as Form B
same,% wt change at 60% RH,[3],5.8 wt %
same,% wt change at 90% RH,[3],5.9 wt %
same,volatiles released during TG-IR,[8],"only water, and no hydrogen chloride, was released"
same,XRPD pattern / stability after thermal stress,[1],stable; also recorded: No change; also recorded: remained unchanged
